This is an account of results in ChEMBL document CHEMBL4359901, “Cyclic enaminone as new chemotype for selective cyclooxygenase-2 inhibitory, anti-inflammatory, and analgesic activities” (Eur J Med Chem, 2019).

This assay relates to Rattus norvegicus. Nature of the assay: Antiinflammatory activity in Sprague-Dawley rat model of carrageenan-induced thermal hyperalgesia assessed as paw withdrawal latency pressure at 50 mg/kg, po administered 1 hr prior to carrageenan challenge and measured after 1 hr by Randall-Selitto test (reference value: 246.55 +/- 1.05 g). It is filed as functional.

Turning to `CC(=O)N(C1=CC(=O)CCC1)c1ccc(Cl)cc1`, the Activity is listed as 272.83 g.
